This passage reports IC50 results from patent US8003785B2 (Takeda Pharmaceutical Company Limited, priority 2008, dated 2011).

The IC50 is the concentration that inhibits the measured activity by half. High values mean weaker potency, low ones greater potency.

In the test the target is T1, PLK1 (Homo sapiens, UniProt P53350).
T1 construct: Full-length, active GST-PLK1 is purified from Sf9 insect cells; made in house; host or cells: Sf9 insect cells
T1 sequence (P53350 whole entry): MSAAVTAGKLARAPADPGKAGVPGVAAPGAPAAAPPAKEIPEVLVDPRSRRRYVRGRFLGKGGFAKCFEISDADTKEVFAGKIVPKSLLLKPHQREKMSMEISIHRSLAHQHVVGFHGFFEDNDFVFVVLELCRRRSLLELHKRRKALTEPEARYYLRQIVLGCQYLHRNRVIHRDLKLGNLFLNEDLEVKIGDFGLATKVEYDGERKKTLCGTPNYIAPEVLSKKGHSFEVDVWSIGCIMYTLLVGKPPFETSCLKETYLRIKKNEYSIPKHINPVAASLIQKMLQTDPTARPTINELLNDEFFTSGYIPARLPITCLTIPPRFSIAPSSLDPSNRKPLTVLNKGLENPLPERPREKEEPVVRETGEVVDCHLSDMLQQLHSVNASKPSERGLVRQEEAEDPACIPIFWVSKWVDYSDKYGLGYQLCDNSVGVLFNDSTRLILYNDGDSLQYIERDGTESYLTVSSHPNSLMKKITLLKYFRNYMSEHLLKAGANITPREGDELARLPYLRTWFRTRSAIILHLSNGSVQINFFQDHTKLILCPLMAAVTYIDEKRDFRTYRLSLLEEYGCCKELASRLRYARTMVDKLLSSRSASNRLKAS
Nature of the test: Biochemical Characterization Assay: HTRF kinase assay, GST-PLK1 phosphorylation of GST-p53. To be noted: GST-PLK1, GST-p53 substrate, ATP. On the procedure:
Biochemical Characterization Assay
Full-length, active GST-PLK1 is purified from Sf9 insect cells, and full-length GST-p53 is purified from E. coli. Anti-phospho p53 antibody is from Cell Signaling Technology. Europium-conjugated anti-rabbit antibody is from PerkinElmer Life and Analytical Sciences. APC-conjugated anti-GST antibody is from Prozyme.
Six microliters of GST-PLK1 (3 ug/mL) in Kinase Assay Buffer are then added and the solution incubated at 37° C. for 35 minutes. Six microliters of solution containing 43 mM EDTA to stop the reaction and a 1:600 dilution of anti-phospho-p53 antibody in 20 mM HEPES pH 7, 50 mM NaCl, and 0.5 mg/mL BSA (Antibody Binding Buffer) are added and the solution incubated at 37° C. for 30 minutes. […] The HTRF signal is read on an Envision reader from PerkinElmer Life and Analytical Sciences.
A general note: Time-resolved FRET reads energy transfer from a long-lived donor to a nearby acceptor.
The molecule `COc1cc(C(=O)NCCc2ccc3c(c2)OCO3)ccc1Nc1ncc2c(n1)N(C1CCCC1)CC(F)(F)C(=O)N2C` [Example I-43, N-(2-benzo[1,3]dioxol-5-yl-ethyl)-4-(9-cyclopentyl-7,7-difluoro-5-methyl-6-oxo-6,7,8,9-tetrahydro-5H-pyrimido[4,5-b][1,4]diazepin-2-ylamino)-3-methoxy-benzamide] came in with a half-inhibitory concentration (IC50) of 51 to 500 nM.

In turn, `COc1cc(C(=O)N[C@H]2CCC[C@H]2C(N)=O)ccc1Nc1ncc2c(n1)N(C1CCCC1)CC(F)(F)C(=O)N2C` [Example I-44, N-[(1S,2R)-(2-carbamoyl-cyclopentyl)]-4-(9-cyclopentyl-7,7-difluoro-5-methyl-6-oxo-6,7,8,9-tetrahydro-5H-pyrimido[4,5-b][1,4]diazepin-2-ylamino)-3-methoxy-benzamide] came in with an IC50 of 1 to 50 nM.

Molecule `COc1cc(C(=O)NCCN2CCCC2)ccc1Nc1ncc2c(n1)N(C1CCCC1)CC(F)(F)C(=O)N2C` [Example I-45, 4-(9-cyclopentyl-7,7-difluoro-5-methyl-6-oxo-6,7,8,9-tetrahydro-5H-pyrimido[4,5-b][1,4]diazepin-2-ylamino)-3-methoxy-N-(2-pyrrolidin-1-yl-ethyl)-benzamide] gave an IC50 of 1 to 50 nM.

`COc1cc(C(=O)NCCCNC(C)C)ccc1Nc1ncc2c(n1)N(C1CCCC1)CC(F)(F)C(=O)N2C` [Example I-46, 4-(9-cyclopentyl-7,7-difluoro-5-methyl-6-oxo-6,7,8,9-tetrahydro-5H-pyrimido[4,5-b][1,4]diazepin-2-ylamino)-N-(3-isopropylamino-propyl)-3-methoxy-benzamide] had an IC50 of 1 to 50 nM.

On to `COc1cc(C(=O)NCCN2CCN(C)CC2)ccc1Nc1ncc2c(n1)N(C1CCCC1)CC(F)(F)C(=O)N2C` [Example I-47, 4-(9-cyclopentyl-7,7-difluoro-5-methyl-6-oxo-6,7,8,9-tetrahydro-5H-pyrimido[4,5-b][1,4]diazepin-2-ylamino)-3-methoxy-N-[2-(4-methyl-piperazin-1-yl)-ethyl]-benzamide], for which the IC50 fell in the range of 1 to 50 nM.

In the case of `COc1cc(C(=O)NCCN)ccc1Nc1ncc2c(n1)N(C1CCCC1)CC(F)(F)C(=O)N2C` [Example I-48, N-(2-amino-ethyl)-4-(9-cyclopentyl-7,7-difluoro-5-methyl-6-oxo-6,7,8,9-tetrahydro-5H-pyrimido[4,5-b][1,4]diazepin-2-ylamino)-3-methoxy-benzamide], the IC50 lay in the range of 1 to 50 nM.

`COc1cc(C(=O)NCCN2CCNCC2)ccc1Nc1ncc2c(n1)N(C1CCCC1)CC(F)(F)C(=O)N2C` [Example I-49, 4-(9-cyclopentyl-7,7-difluoro-5-methyl-6-oxo-6,7,8,9-tetrahydro-5H-pyrimido[4,5-b][1,4]diazepin-2-ylamino)-3-methoxy-N-(2-piperazin-1-yl-ethyl)-benzamide] came in with an IC50 of 1 to 50 nM.

`COc1cc(C(=O)NC2CC3CCC(C2)N3C)ccc1Nc1ncc2c(n1)N(C1CCCC1)CC(F)(F)C(=O)N2C` (centres unmarked) [Example I-50, 4-(9-cyclopentyl-7,7-difluoro-5-methyl-6-oxo-6,7,8,9-tetrahydro-5H-pyrimido[4,5-b][1,4]diazepin-2-ylamino)-3-methoxy-N-(8-methyl-8-aza-bicyclo[3.2.1]oct-3-yl)-benzamide]: the IC50 is 1 to 50 nM.

In turn, `COc1cc(C(=O)NCCc2c[nH]c3ccccc23)ccc1Nc1ncc2c(n1)N(C1CCCC1)CC(F)(F)C(=O)N2C` [Example I-51, 4-(9-cyclopentyl-7,7-difluoro-5-methyl-6-oxo-6,7,8,9-tetrahydro-5H-pyrimido[4,5-b][1,4]diazepin-2-ylamino)-N-[2-(1H-indol-3-yl)-ethyl]-3-methoxy-benzamide] yielded an IC50 of 51 to 500 nM.

In turn, `COc1cc(C(=O)NCCN(C)C)ccc1Nc1ncc2c(n1)N(C1CCCC1)CC(F)(F)C(=O)N2C` [Example I-52, 4-(9-cyclopentyl-7,7-difluoro-5-methyl-6-oxo-6,7,8,9-tetrahydro-5H-pyrimido[4,5-b][1,4]diazepin-2-ylamino)-N-(2-dimethylamino-ethyl)-3-methoxy-benzamide] registered an IC50 of 1 to 50 nM.

`COc1cc(C(=O)NCCCNC2CCCCC2)ccc1Nc1ncc2c(n1)N(C1CCCC1)CC(F)(F)C(=O)N2C` [Example I-53, N-(3-cyclohexylamino-propyl)-4-(9-cyclopentyl-7,7-difluoro-5-methyl-6-oxo-6,7,8,9-tetrahydro-5H-pyrimido[4,5-b][1,4]diazepin-2-ylamino)-3-methoxy-benzamide] had an IC50 of 1 to 50 nM.

`COc1cc(C(=O)NCC(C)(C)CN(C)C)ccc1Nc1ncc2c(n1)N(C1CCCC1)CC(F)(F)C(=O)N2C` [Example I-60, 4-(9-cyclopentyl-7,7-difluoro-5-methyl-6-oxo-6,7,8,9-tetrahydro-5H-pyrimido[4,5-b][1,4]diazepin-2-ylamino)-N-(3-dimethylamino-2,2-dimethyl-propyl)-3-methoxy-benzamide] gave an IC50 of 1 to 50 nM.

In the case of `COc1cc(C(=O)NCCCn2ccnc2)ccc1Nc1ncc2c(n1)N(C1CCCC1)CC(F)(F)C(=O)N2C` [Example I-61, 4-(9-cyclopentyl-7,7-difluoro-5-methyl-6-oxo-6,7,8,9-tetrahydro-5H-pyrimido[4,5-b][1,4]diazepin-2-ylamino)-N-(3-imidazol-1-yl-propyl)-3-methoxy-benzamide], the IC50 fell in the range of 1 to 50 nM.

`COc1cc(C(=O)NC2CCN(c3ccncc3)CC2)ccc1Nc1ncc2c(n1)N(C1CCCC1)CC(F)(F)C(=O)N2C` [Example I-62, 4-(9-cyclopentyl-7,7-difluoro-5-methyl-6-oxo-6,7,8,9-tetrahydro-5H-pyrimido[4,5-b][1,4]diazepin-2-ylamino)-3-methoxy-N-(3,4,5,6-tetrahydro-2H-[1,4′]bipyridinyl-4-yl)-benzamide] registered an IC50 of 1 to 50 nM.

On to `COc1cc(C(=O)NC2CCN(C3CCCC3)CC2)ccc1Nc1ncc2c(n1)N(C1CCCC1)CC(F)(F)C(=O)N2C` [Example I-63, 4-(9-cyclopentyl-7,7-difluoro-5-methyl-6-oxo-6,7,8,9-tetrahydro-5H-pyrimido[4,5-b][1,4]diazepin-2-ylamino)-N-(1-cyclopentyl-piperidin-4-yl)-3-methoxy-benzamide], for which the half-maximal inhibitory concentration (IC50) fell in the range of 1 to 50 nM.

`COc1cc(C(=O)NC2CCN(C(C)C)CC2)ccc1Nc1ncc2c(n1)N(C1CCCC1)CC(F)(F)C(=O)N2C` [Example I-64, 4-(9-cyclopentyl-7,7-difluoro-5-methyl-6-oxo-6,7,8,9-tetrahydro-5H-pyrimido[4,5-b][1,4]diazepin-2-ylamino)-N-(1-isopropyl-piperidin-4-yl)-3-methoxy-benzamide] came in with an IC50 of 1 to 50 nM.

Regarding `COc1cc(C(=O)NC2CC(C)(C)NC(C)(C)C2)ccc1Nc1ncc2c(n1)N(C1CCCC1)CC(F)(F)C(=O)N2C` [Example I-65, 4-(9-cyclopentyl-7,7-difluoro-5-methyl-6-oxo-6,7,8,9-tetrahydro-5H-pyrimido[4,5-b][1,4]diazepin-2-ylamino)-3-methoxy-N-(2,2,6,6-tetramethyl-piperidin-4-yl)-benzamide], the IC50 lay within 1 to 50 nM.

In turn, `COc1cc(C(=O)NC2CCN(C3CC3)CC2)ccc1Nc1ncc2c(n1)N(C1CCCC1)CC(F)(F)C(=O)N2C` [Example I-66, 4-(9-cyclopentyl-7,7-difluoro-5-methyl-6-oxo-6,7,8,9-tetrahydro-5H-pyrimido[4,5-b][1,4]diazepin-2-ylamino)-N-(1-cyclopropyl-piperidin-4-yl)-3-methoxy-benzamide] gave a concentration for half-maximal inhibition (IC50) of 1 to 50 nM.

In turn, `CCN1CCC(NC(=O)c2ccc(Nc3ncc4c(n3)N(C3CCCC3)CC(F)(F)C(=O)N4C)c(OC)c2)CC1` [Example I-67, 4-(9-cyclopentyl-7,7-difluoro-5-methyl-6-oxo-6,7,8,9-tetrahydro-5H-pyrimido[4,5-b][1,4]diazepin-2-ylamino)-N-(1-ethyl-piperidin-4-yl)-3-methoxy-benzamide] came in with an IC50 of 1 to 50 nM.

For `COc1cc(C(=O)N[C@H]2CC[C@@H](O)CC2)ccc1Nc1ncc2c(n1)N(C1CCCC1)CC(F)(F)C(=O)N2C` [Example I-68, cis-4-(9-cyclopentyl-7,7-difluoro-5-methyl-6-oxo-6,7,8,9-tetrahydro-5H-pyrimido[4,5-b][1,4]diazepin-2-ylamino)-N-(4-hydroxy-cyclohexyl)-3-methoxy-benzamide], the IC50 lay within 1 to 50 nM.

With `COc1cc(C(=O)N[C@H]2CC[C@H](O)CC2)ccc1Nc1ncc2c(n1)N(C1CCCC1)CC(F)(F)C(=O)N2C` [Example I-69, trans-4-(9-cyclopentyl-7,7-difluoro-5-methyl-6-oxo-6,7,8,9-tetrahydro-5H-pyrimido[4,5-b][1,4]diazepin-2-ylamino)-N-(4-hydroxy-cyclohexyl)-3-methoxy-benzamide], the IC50 is 1 to 50 nM.

As to `COc1cc(C(=O)NC2CCN(C(=O)OCC3c4ccccc4-c4ccccc43)CC2)ccc1Nc1ncc2c(n1)N(C1CCCC1)CC(F)(F)C(=O)N2C` [Example I-70, 4-[4-(9-cyclopentyl-7,7-difluoro-5-methyl-6-oxo-6,7,8,9-tetrahydro-5H-pyrimido[4,5-b][1,4]diazepin-2-ylamino)-3-methoxy-benzoylamino]-piperidine-1-carboxylic acid 9H-fluoren-9-ylmethyl ester], the IC50 lay in the range of 1 to 50 nM.

With `COc1cc(C(=O)NC2CCN(C(=O)OC(C)(C)C)CC2)ccc1Nc1ncc2c(n1)N(C1CCCC1)CC(F)(F)C(=O)N2C` [Example I-71, 4-[4-(9-cyclopentyl-7,7-difluoro-5-methyl-6-oxo-6,7,8,9-tetrahydro-5H-pyrimido[4,5-b][1,4]diazepin-2-ylamino)-3-methoxy-benzoylamino]-piperidine-1-carboxylic acid tert-butyl ester], the IC50 lay within 51 to 500 nM.
